Results taken from patent US20230364198A1, “C-Peptide as a Therapy for Patients with Diabetes” (University of Cincinnati, priority 2022, published 2023).
Values joined by “and” are separate entries in the source; they are usually repeats but may differ in a detail not shown here. Equal values may be shown once. “Also recorded” adds a separate entry of the source. Read-outs that look alike come from different tables or passages of the source. No end group written: not given here.

Assays:
adult mongrel dogs = assay: Hyperinsulinemic euglycemic (Pd1) / hypoglycemic (Pd2) clamp with IV C-peptide or saline coinfusion in dogs; type: in vivo, dog; conditions: for glucagon secretion during euglycemic/hyperinsulinemic conditions (words): Pd1, IV C-peptide with insulin vs IV saline with insulin
Experimental: Studies were carried out on 18-hour fasted adult mongrel dogs (21 ± 4 kg; mean ± SD; 5 male, 4 female), aged 12.1 ± 0.6 months and acquired from a US Department of Agriculture-approved vendor. The animals were housed in a facility with a 12-hour light/12-hour dark cycle (lights on at 06:00 hours) and fed once daily a standard chow and meat diet (34% protein, 14.5% fat, 46% carbohydrate, and 5.5% fiber based on dry weight) that was weight maintaining.
Two weeks prior to being studied, each dog underwent surgery under general anesthesia to insert sampling catheters in a femoral artery, the hepatic portal vein, and the left common hepatic vein and to place blood flow probes (Transonic Systems) around the hepatic portal vein and hepatic artery. Two experiments were conducted on each animal, with the first being approximately 15 days after surgery and the second approximately 15 days later. Two days before each experiment, blood was drawn to measure leukocyte and hematocrit counts for each animal. […] On the morning of each experiment, the sampling catheters and flow probes were removed from their subcutaneous pockets under local anesthesia (2% lidocaine, Hospira), and the animal was placed in a Pavlov harness. Intravenous catheters were then inserted into a cephalic and saphenous vein to allow peripheral infusions as necessary. The animal was then allowed to rest for 100 minutes, after which basal samples were collected from the artery and portal and hepatic veins between -20 and 0 minutes.
After the 0-minute sample was collected, experimental period 1 (Pd1) began with the infusion of insulin at 1 mU/kg/min into a leg vein (FIG. 1). At the same time, a leg vein infusion of either canine CPEP (10 pmol/kg/min; AnaSpec) or SAL was also started, and dextrose was infused as needed to maintain euglycemia throughout Pd1 (0-120 minutes). Studies were randomized such that 4 of the 9 dogs received the C-peptide on the first study and the other 5 received saline first. At minute 120, the dextrose infusion was reduced, and the plasma glucose level was allowed to fall to approximately 50 mg/dL, where it was clamped (Pd2; 120-240 minutes; FIG. 1). At the end of the first experiment, all infusions were halted with the exception of glucose, which was infused as needed to restore euglycemia. Once that infusion was no longer required, the catheters and flow probes were placed back into subcutaneous pockets under general anesthesia. After the second experiment, animals were euthanized with pentobarbital, the abdomen was opened, and the positions of the catheter tips were verified.
The processing of blood samples has been described previously. Plasma glucose was analyzed using the glucose oxidase method (Analox Instruments). Insulin, glucagon, and C-peptide were measured using commercially available radioimmunoassay (RIA) kits from MilliporeSigma, and cortisol was measured using an RIA protocol developed by the Vanderbilt University Medical Center Hormone Assay & Analytical Services Core using an in-house antibody (gift from W. Nicholson) and 125I-cortisol (MP Biomedicals). Catecholamines were measured using high-performance liquid chromatography, while NEFA (FUJIFILM Medical Systems) and lactate and glycerol concentrations were measured using fluorometric assays.
Hepatic blood flow was measured using ultrasonic flow probes (Transonic Systems). Net hepatic glucose balance (NHGB), hepatic sinusoidal insulin and glucagon levels, and non-hepatic glucose uptake were calculated as described previously, while plasma glucose levels were converted to whole blood values for the calculation of NHGB. Glucagon was measured every 30 minutes during Pd1 and Pd2, and those data are expressed as absolute values and as Δ AUC. […]

[1] = dogs; cited from earlier work
[2] = humans; cited from earlier work
[3] = in vivo; cited from earlier work

EVEDLQVRDVELAGAPGEGGLQPLALEGALQ [C-peptide]
glucagon secretion during euglycemic/hyperinsulinemic conditions (words) (adult mongrel dogs): preserved glucagon secretion; also recorded: prevented the expected decline in glucagon secretion; also recorded: preserves basal glucagon secretion | glucagon secretion during euglycemic/hyperinsulinemic conditions (words) (adult mongrel dogs; listed as CPEP): glucagon secretion decreased less | glucagon secretion during hypoglycemic/hyperinsulinemic conditions (adult mongrel dogs; Pd2, IV C-peptide with insulin vs IV saline with insulin): doubled glucagon secretion | reduction in exogenous glucose required to sustain the plasma glucose at 50 mg/dL vs SAL (adult mongrel dogs; final 90 minutes of Pd2): 47% | exogenous glucose infusion rate (GIR) AUC (adult mongrel dogs; final 90 minutes of Pd2, glucose clamped at 50 mg/dL, mean ± SEM): 37 ± 16 mg/kg × 90 minutes | impact on net hepatic uptake of NEFA and glycerol (adult mongrel dogs; hyperinsulinemia of Pd1): no additional impact | impact on lipolysis (NEFA and glycerol levels) (adult mongrel dogs; hypoglycemia, Pd2): no impact on lipolysis | increase in glucagon secretion in the CPEP group compared with SAL (adult mongrel dogs; insulin-induced hypoglycemia (Pd2), IV C-peptide 10 pmol/kg/min with insulin 1 mU/kg/min): 2 fold | epinephrine, norepinephrine and cortisol levels, SAL vs CPEP (adult mongrel dogs; insulin-induced hypoglycemia, Pd2): no significant difference between treatments | increase in net hepatic glucose output (net HGP) vs SAL (adult mongrel dogs; insulin-induced hypoglycemia, final 90 minutes of Pd2): 75% | increase in net hepatic glucose output (net HGP) vs SAL (adult mongrel dogs; insulin-induced hypoglycemia, final 90 minutes of Pd2, listed as CPEP): 75% and 73% | clearance rate of C-peptide [1]: ~ 11.6 mL/kg/min | clearance rate of C-peptide [2]: ~ 4.4 mL/kg/min | C-peptide extraction by the liver as share of its clearance [3]: approximately 5%
